In ChEMBL document CHEMBL5241112, “Insights into the recent progress in the medicinal chemistry of pyranopyrimidine analogs” (RSC Med Chem, 2022):
In brackets after ≈: the same amount, converted by molar mass.

Key:
DNA = assay: Binding affinity to DNA (unknown origin) assessed as DNA intercalation; assay type: nucleic-acid assay
HepG2 = assay: Anticancer activity against human HepG2 cells assessed as reduction in cell viability; assay type: functional, cell-based
MCF7 = assay: Anticancer activity against human MCF7 cells assessed as reduction in cell viability; assay type: functional, cell-based
DNA topoisomerase II = DNA topoisomerase II (Homo sapiens, UniProt P11388+Q02880); assay: Inhibition of DNA topoisomerase 2 (unknown origin); assay type: protein assay
HCT-116 = assay: cells; conditions: Homo sapiens
Candida albicans [1] = assay: Antifungal activity against Candida albicans assessed as inhibition of fungal growth; assay type: functional
Escherichia coli [2] = assay: Antibacterial activity against Escherichia coli assessed as inhibition of bacterial growth; assay type: functional
Escherichia coli [3] = assay: Antibacterial activity against Escherichia coli assessed as diameter of inhibition zone; assay type: functional
Aspergillus niger = assay: Antifungal activity against Aspergillus niger assessed as inhibition of fungal growth; assay type: functional
Aspergillus flavus = assay: Antifungal activity against Aspergillus flavus assessed as inhibition of fungal growth; assay type: functional
Bacillus subtilis [4] = assay: Antibacterial activity against Bacillus subtilis assessed as diameter of inhibition zone; assay type: functional
Staphylococcus aureus [5] = assay: Antibacterial activity against Staphylococcus aureus assessed as diameter of inhibition zone; assay type: functional
Pseudomonas aeruginosa [6] = assay: Antibacterial activity against Pseudomonas aeruginosa assessed as inhibition of bacterial growth; assay type: functional
Pseudomonas aeruginosa [7] = assay: Antimicrobial activity against Pseudomonas aeruginosa ATCC 27853 assessed as diameter of inhibition zone at 20 mg/ml incubated for 24 hrs by disk diffusion method; assay type: functional; conditions: read-out: DIZ
Klebsiella pneumoniae [8] = assay: Antimicrobial activity against Klebsiella pneumoniae UC57 assessed as diameter of inhibition zone at 20 mg/ml incubated for 24 hrs by disk diffusion method; assay type: functional; conditions: read-out: DIZ
Urease = Urease (Canavalia ensiformis, UniProt P07374); assay: Inhibition of jack bean urease by phenol red method
Salmonella typhimurium = assay: Antibacterial activity against Salmonella typhimurium assessed as diameter of inhibition zone; assay type: functional, Salmonella enterica subsp. enterica serovar Typhimurium
Escherichia coli [9] = assay: Antimicrobial activity against Escherichia coli ATCC 14169 assessed as diameter of inhibition zone at 20 mg/ml incubated for 24 hrs by disk diffusion method; assay type: functional; conditions: read-out: DIZ
Staphylococcus aureus [10] = assay: Antimicrobial activity against Staphylococcus aureus NCTC7447 assessed as diameter of inhibition zone at 20 mg/ml incubated for 24 hrs by disk diffusion method; assay type: functional; conditions: read-out: DIZ
Bacillus cereus [11] = assay: Antimicrobial activity against Bacillus cereus ATCC14579 assessed as diameter of inhibition zone at 20 mg/ml incubated for 24 hrs by disk diffusion method; assay type: functional; conditions: read-out: DIZ
Micrococcus luteus = assay: Antibacterial activity against Micrococcus luteus MTCC 2470 assessed as bacterial growth inhibition; assay type: functional
Staphylococcus aureus [12] = assay: Antibacterial activity against Staphylococcus aureus MLS-16 MTCC 2940 assessed as bacterial growth inhibition; assay type: functional
Pseudomonas aeruginosa [13] = assay: Antibacterial activity against Pseudomonas aeruginosa MTCC 2453 assessed as bacterial growth inhibition; assay type: functional
Raoultella planticola = assay: Antibacterial activity against Raoultella planticola MTCC 530 assessed as bacterial growth inhibition; assay type: functional; conditions: Klebsiella planticola
Bacillus subtilis [14] = assay: Antibacterial activity against Bacillus subtilis MTCC 121 assessed as bacterial growth inhibition; assay type: functional
Escherichia coli [15] = assay: Antibacterial activity against Escherichia coli MTCC 739 assessed as bacterial growth inhibition; assay type: functional
Staphylococcus aureus [16] = assay: Antibacterial activity against Staphylococcus aureus assessed as inhibition of bacterial growth; assay type: functional
PC-3 = assay: Anticancer activity against human PC-3 cells assessed as reduction in cell viability; assay type: functional, cell-based
Staphylococcus aureus [17] = assay: Antimicrobial activity against Staphylococcus aureus assessed as diameter of inhibition zone at 1.2 mg/ml incubated for 12 hrs by agar disk diffusion method; assay type: functional; conditions: read-out: DIZ
Bacillus cereus [18] = assay: Antimicrobial activity against Bacillus cereus assessed as diameter of inhibition zone at 2.5 mg/ml incubated for 12 hrs by agar disk diffusion method; assay type: functional; conditions: read-out: DIZ
Pseudomonas aeruginosa [19] = assay: Antimicrobial activity against Pseudomonas aeruginosa assessed as diameter of inhibition zone at 1.2 mg/ml incubated for 12 hrs by agar disk diffusion method; assay type: functional; conditions: read-out: DIZ
Pseudomonas aeruginosa [20] = assay: Antimicrobial activity against Pseudomonas aeruginosa assessed as diameter of inhibition zone at 2.5 mg/ml incubated for 12 hrs by agar disk diffusion method; assay type: functional; conditions: read-out: DIZ
Escherichia coli [21] = assay: Antimicrobial activity against Escherichia coli assessed as diameter of inhibition zone at 2.5 mg/ml incubated for 12 hrs by agar disk diffusion method; assay type: functional; conditions: read-out: DIZ
Staphylococcus aureus [22] = assay: Antimicrobial activity against Staphylococcus aureus assessed as diameter of inhibition zone at 5.0 mg/ml incubated for 12 hrs by agar disk diffusion method; assay type: functional; conditions: read-out: DIZ
Bacillus cereus [23] = assay: Antimicrobial activity against Bacillus cereus assessed as diameter of inhibition zone at 5.0 mg/ml incubated for 12 hrs by agar disk diffusion method; assay type: functional; conditions: read-out: DIZ
Bacillus cereus [24] = assay: Antimicrobial activity against Bacillus cereus assessed as diameter of inhibition zone at 1.2 mg/ml incubated for 12 hrs by agar disk diffusion method; assay type: functional; conditions: read-out: DIZ
Escherichia coli [25] = assay: Antimicrobial activity against Escherichia coli assessed as diameter of inhibition zone at 5.0 mg/ml incubated for 12 hrs by agar disk diffusion method; assay type: functional; conditions: read-out: DIZ
Pseudomonas aeruginosa [26] = assay: Antimicrobial activity against Pseudomonas aeruginosa assessed as diameter of inhibition zone at 5.0 mg/ml incubated for 12 hrs by agar disk diffusion method; assay type: functional; conditions: read-out: DIZ
Staphylococcus aureus [27] = assay: Antimicrobial activity against Staphylococcus aureus assessed as diameter of inhibition zone at 2.5 mg/ml incubated for 12 hrs by agar disk diffusion method; assay type: functional; conditions: read-out: DIZ
Escherichia coli [28] = assay: Antimicrobial activity against Escherichia coli assessed as diameter of inhibition zone at 1.2 mg/ml incubated for 12 hrs by agar disk diffusion method; assay type: functional; conditions: read-out: DIZ
[29] = system: Human immunodeficiency virus 2; assay: Antiviral activity against HIV2 ROD infected in human MT4 cells assessed as reduction in virus-induced cytopathic effect by MTT assay; assay type: functional, organism-based; conditions: Human immunodeficiency virus 2, ROD
[30] = system: Human immunodeficiency virus 1; assay: Antiviral activity against HIV1 IIIB infected in human MT4 cells assessed as reduction in virus-induced cytopathic effect by MTT assay; assay type: functional, organism-based; conditions: Human immunodeficiency virus 1, IIIB
[31] = system: Mycobacterium tuberculosis; assay: Antitubercular activity against Mycobacterium tuberculosis H37Rv assessed as bacterial growth inhibition at 100 ug/ml; assay type: functional
[32] = system: Mycobacterium tuberculosis; assay: Antitubercular activity against Mycobacterium tuberculosis H37Rv assessed as bacterial growth inhibition at 250 ug/ml; assay type: functional
Clostridium tetani = assay: Antibacterial activity against Clostridium tetani MTCC 449 assessed as bacterial growth inhibition by broth microdilution method; assay type: functional
Plasmodium falciparum = assay: microbe, parasite or virus in culture
Aspergillus fumigatus = assay: Antifungal activity against Aspergillus fumigatus MTCC 227 assessed as fungal growth inhibition by broth microdilution method; assay type: functional
Candida albicans [33] = assay: Antifungal activity against Candida albicans MTCC 3008 assessed as fungal growth inhibition by broth microdilution method; assay type: functional
Alpha-glucosidase = Alpha-glucosidase (Saccharomyces cerevisiae S288c, UniProt P53341+P38158+P07265); assay: Inhibition of Saccharomyces cerevisiae alpha-glucosidase preincubated for 5 mins followed by PNP-GLUC substrate addition and measured after 20 mins by spectroscopic analysis; assay type: protein assay
Albumin = Albumin (Bos taurus, UniProt P02769); assay: […] bovine serum albumin denaturation incubated for 23 mins by UV-Visible spectrophotometry
[34] = Inhibition of porcine pancreatic alpha-amylase preincubated for 10 mins followed by substrate starch addition and measured after 10 mins by colorimetric analysis; design: species or system Sus scrofa
Klebsiella pneumoniae [35] = assay: Antibacterial activity against Klebsiella pneumoniae MTCC 109 assessed as diameter of inhibition zone at 0.1 mg/ml incubated for 24 hrs by agar well diffusion method; assay type: functional; conditions: read-out: DIZ
Staphylococcus aureus [36] = assay: Antibacterial activity against Staphylococcus aureus MTCC 87 assessed as diameter of inhibition zone at 0.1 mg/ml incubated for 24 hrs by agar well diffusion method; assay type: functional; conditions: read-out: DIZ

Urease, sequence (P07374 whole entry): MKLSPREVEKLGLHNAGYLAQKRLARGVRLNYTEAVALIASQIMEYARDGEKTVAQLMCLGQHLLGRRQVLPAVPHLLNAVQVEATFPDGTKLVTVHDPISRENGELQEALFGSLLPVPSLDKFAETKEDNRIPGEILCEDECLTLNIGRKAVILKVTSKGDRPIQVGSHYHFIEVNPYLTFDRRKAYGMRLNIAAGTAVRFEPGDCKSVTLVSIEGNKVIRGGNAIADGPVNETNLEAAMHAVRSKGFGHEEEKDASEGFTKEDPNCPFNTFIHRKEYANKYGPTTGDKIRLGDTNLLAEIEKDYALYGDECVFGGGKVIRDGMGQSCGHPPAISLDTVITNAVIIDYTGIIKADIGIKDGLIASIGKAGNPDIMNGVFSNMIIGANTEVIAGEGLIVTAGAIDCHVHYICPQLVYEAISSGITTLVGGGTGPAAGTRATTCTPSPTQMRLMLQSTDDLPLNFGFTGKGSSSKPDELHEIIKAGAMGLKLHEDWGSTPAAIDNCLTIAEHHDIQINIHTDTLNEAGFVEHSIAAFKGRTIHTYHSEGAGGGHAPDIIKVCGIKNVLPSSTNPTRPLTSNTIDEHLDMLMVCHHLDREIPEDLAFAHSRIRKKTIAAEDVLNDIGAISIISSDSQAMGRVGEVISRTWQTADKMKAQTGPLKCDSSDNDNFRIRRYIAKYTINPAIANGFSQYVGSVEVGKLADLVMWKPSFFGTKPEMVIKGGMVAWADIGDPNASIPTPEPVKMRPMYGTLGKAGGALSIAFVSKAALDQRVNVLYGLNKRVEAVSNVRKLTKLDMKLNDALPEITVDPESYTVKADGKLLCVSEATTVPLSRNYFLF
Albumin, sequence (P02769 whole entry): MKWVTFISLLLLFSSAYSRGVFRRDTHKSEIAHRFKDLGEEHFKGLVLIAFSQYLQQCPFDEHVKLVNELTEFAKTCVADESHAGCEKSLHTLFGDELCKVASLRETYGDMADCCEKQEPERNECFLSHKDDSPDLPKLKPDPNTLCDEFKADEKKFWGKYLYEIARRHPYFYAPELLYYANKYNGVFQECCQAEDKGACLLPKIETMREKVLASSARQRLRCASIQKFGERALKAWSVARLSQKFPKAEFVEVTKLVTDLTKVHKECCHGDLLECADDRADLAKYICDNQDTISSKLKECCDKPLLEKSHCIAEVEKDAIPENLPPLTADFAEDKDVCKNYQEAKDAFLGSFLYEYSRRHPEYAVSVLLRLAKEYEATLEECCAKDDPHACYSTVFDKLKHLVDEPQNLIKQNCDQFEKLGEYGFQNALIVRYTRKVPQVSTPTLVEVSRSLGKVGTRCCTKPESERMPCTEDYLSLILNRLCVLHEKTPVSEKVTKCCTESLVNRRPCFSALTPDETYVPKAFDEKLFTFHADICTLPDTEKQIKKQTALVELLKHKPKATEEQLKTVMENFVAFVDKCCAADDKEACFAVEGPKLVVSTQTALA

COc1ccc(C2c3c([nH]c(=O)[nH]c3=O)Oc3ncn(C(=S)Nc4ccccc4)c(=N)c32)cc1 (stereo not drawn)
IC50 (DNA): 27.1 µM | IC50 (HepG2): 2.09 µM | IC50 (MCF7): 2.43 µM | IC50 (DNA topoisomerase II): 0.791 µM | IC50 (HCT-116): 2.61 µM

COc1ccc(C2C(C#N)=C(N)Oc3[nH]c(=O)[nH]c(=O)c32)cc1 (stereo not drawn)
MIC (Candida albicans [1]): 125 mg/L (≈ 400 µM) | MIC (Escherichia coli [2]): 25 mg/L (≈ 80.1 µM) | diameter of the inhibition zone (DIZ) (Escherichia coli [3]): 10 mm | MIC (Aspergillus niger): 162 mg/L (≈ 520 µM) | MIC (Aspergillus flavus): 150 mg/L (≈ 480 µM) | diameter of the inhibition zone (DIZ) (Bacillus subtilis [4]): 12 mm | diameter of the inhibition zone (DIZ) (Staphylococcus aureus [5]): 10 mm | MIC (Pseudomonas aeruginosa [6]): 25 mg/L (≈ 80.1 µM) | IC50 (HepG2): 2.09 µM | zone of inhibition at 20000 µg/mL (Pseudomonas aeruginosa [7]): 5 mm | IC50 (MCF7): 2.43 µM | zone of inhibition at 20000 µg/mL (Klebsiella pneumoniae [8]): 14 mm | IC50 (Urease): 62.9 µM | diameter of the inhibition zone (DIZ) (Salmonella typhimurium): 8 mm | zone of inhibition at 20000 µg/mL (Escherichia coli [9]): 8 mm | zone of inhibition at 20000 µg/mL (Staphylococcus aureus [10]): 14 mm | zone of inhibition at 20000 µg/mL (Bacillus cereus [11]): 11 mm | IC50 (HCT-116): 2.61 µM

COc1ccc(C2c3c([nH]c(=O)[nH]c3=O)Oc3ncn(-c4ccccc4O)c(=N)c32)cc1 (stereo not drawn)
IC50 (DNA): 29.9 µM | IC50 (HepG2): 2.09 µM | IC50 (MCF7): 2.43 µM | IC50 (DNA topoisomerase II): 0.776 µM | IC50 (HCT-116): 2.61 µM

O=c1oc2ccccc2c2c1C(c1ccccc1)c1c(Nc3ccc([N+](=O)[O-])cc3)ncnc1O2 (stereo not drawn)
MIC (Micrococcus luteus): 31.2 mg/L (≈ 67.2 µM) | MIC (Staphylococcus aureus [12]): ≤ 125 mg/L | MIC (Pseudomonas aeruginosa [13]): ≤ 125 mg/L | MIC (Raoultella planticola): 31.2 mg/L (≈ 67.2 µM) | MIC (Bacillus subtilis [14]): ≤ 125 mg/L | MIC (Escherichia coli [15]): 31.2 mg/L (≈ 67.2 µM)

N#CC1=C(N)Oc2[nH]c(=O)[nH]c(=O)c2C1Cc1ccccc1 (stereo not drawn)
MIC (Candida albicans [1]): 125 mg/L (≈ 422 µM) | MIC (Escherichia coli [2]): 25 mg/L (≈ 84.4 µM) | MIC (Aspergillus niger): 162 mg/L (≈ 548 µM) | MIC (Aspergillus flavus): 150 mg/L (≈ 506 µM) | MIC (Pseudomonas aeruginosa [6]): 87.5 mg/L (≈ 295 µM) | MIC (Staphylococcus aureus [16]): 25 mg/L (≈ 84.4 µM)

CC(=O)C1=C(C)Oc2[nH]c(=O)[nH]c(=O)c2C1c1cccc([N+](=O)[O-])c1 (stereo not drawn)
IC50 (HepG2): 5.21 mg/L | IC50 (PC-3): 4.8 mg/L (≈ 14 µM) | IC50 (HCT-116): 7.65 mg/L

COc1ccc(C2C(C#N)=C(N)Oc3[nH]c(=S)[nH]c(=O)c32)cc1 (stereo not drawn)
zone of inhibition at 1200 µg/mL (Staphylococcus aureus [17]): 12 mm | zone of inhibition at 2500 µg/mL (Bacillus cereus [18]): 18 mm | zone of inhibition at 1200 µg/mL (Pseudomonas aeruginosa [19]): 12 mm | zone of inhibition at 2500 µg/mL (Pseudomonas aeruginosa [20]): 17 mm | zone of inhibition at 2500 µg/mL (Escherichia coli [21]): 20 mm | zone of inhibition at 5000 µg/mL (Staphylococcus aureus [22]): 20 mm | zone of inhibition at 5000 µg/mL (Bacillus cereus [23]): 22 mm | zone of inhibition at 1200 µg/mL (Bacillus cereus [24]): 14 mm | zone of inhibition at 5000 µg/mL (Escherichia coli [25]): 30 mm | zone of inhibition at 5000 µg/mL (Pseudomonas aeruginosa [26]): 30 mm | zone of inhibition at 2500 µg/mL (Staphylococcus aureus [27]): 16 mm | zone of inhibition at 1200 µg/mL (Escherichia coli [28]): 14 mm

Cc1cn([C@H]2C[C@H](N=[N+]=[N-])[C@@H](CO)O2)c(=O)[nH]c1=O [ZIDOVUDINE]
EC50 [29]: 0.00094 mg/L (≈ 0.00352 µM) | EC50 [30]: 0.0022 mg/L (≈ 0.00823 µM)

Cc1nn(-c2ccccc2)c(-n2ccnc2)c1C1C(C#N)=C(N)Oc2[nH]c(=S)[nH]c(=O)c21 (stereo not drawn)
inhibition at 100 µg/mL [31]: 30% | inhibition at 250 µg/mL [32]: 37% | MIC (Clostridium tetani): 100 mg/L (≈ 225 µM) | IC50 (Plasmodium falciparum): 0.97 mg/L (≈ 2.18 µM) | MIC (Aspergillus fumigatus): 200 mg/L (≈ 450 µM) | MIC (Candida albicans [33]): 500 mg/L (≈ 1120 µM)

O=C(C1=C(c2ccccc2O)Oc2[nH]c(=S)[nH]c(=O)c2C1c1ccc(F)cc1)N1CCCCC1 (stereo not drawn)
IC50 (Alpha-glucosidase): 4101 µM | IC50 (Albumin): 12.3 µM | IC50 [34]: 42.8 µM | zone of inhibition at 100 µg/mL (Klebsiella pneumoniae [35]): 9.2 mm | zone of inhibition at 100 µg/mL (Staphylococcus aureus [36]): 10.5 mm
